Laboratory results: patent US8835634B2, “Quinoxalinone derivatives as insulin secretion stimulators, methods for obtaining them and use thereof for the treatment of diabetes” (Merck Patent GmbH, priority 2008, dated 2014)

Legend:
INS-1 cells = assay: Insulin secretion assay in INS-1 cells (glucose at 4.2 mM); format: cell-based, rat; settings: glucose 4.2 mM, 1 h incubation, control = glucose 4.2 mM; for Insulin secretion, % of ctrl at 10 μM of cpd: 10 μM compound; for Insulin secretion, % of ctrl at 50 μM of cpd: 50 μM compound
Description: Culture of Pancreatic INS-1 Cells
INS-1 cells were cultured in complete medium, RPMI1640 containing 1 mM sodium pyruvate, 50 μM 2-mercaptoethanol, 2 mM glutamine, 10 mM HEPES, 100 IU/mL penicillin, and 100 μg/mL streptomycin (CM), supplemented with 10 mM glucose, and 10% (vol/vol) heat-inactivated fetal calf serum (FCS), as described by Asfari et al. (Endocrinology 130: 167-178, 1992).
INS-1 cells were plated and cultured in 48-well plates. After 2 days of culture, the medium was removed and cells were cultured for 24 h with a medium change to 5 mM glucose, 1% FCS. The cells were then washed with Krebs-Ringer Bicarbonate HEPES buffer (KRBH; 135 mM NaCl; 3.6 mM KCl; 5 mM NaHCO3; 0.5 mM NaH2PO4; 0.5 mM MgCl2; 1.5 mM CaCl2 and 10 mM HEPES; pH 7.4) 0.1% BSA containing 2.8 mM glucose and preincubated for 30 min at 37° C. in the same buffer. The cells were then washed twice and incubated for 1 h in KRBH 0.1% BSA containing 4.2 mM glucose and different concentrations of the tested molecule. Insulin concentration in the collected supernatants was measured with ELISA using rat insulin antibody (Insulin Rat Elit PLUS, cat. ref 10-1145-01).
Insulin secretion results are expressed in % of control (glucose 4.2 mM).
Insulin Secretion in INS-1 Cells (Glucose at 4.2 mM)

[1] = tested on: diabetic N0STZ rat islets; assay: Insulin secretion in diabetic N0STZ rat islets; format: cell-based; settings: 90 min, Means±SEM
Description: Insulin Secretion in Diabetic N0STZ Rat Islets. Materials and Methods. Islets Isolation and Treatments.
14±3 weeks non-fasted N0STZ (PORTHA et al., 1974) male rats (Charles Rivers-Domaine des Oncins, I'Arbresle, France) were anesthetised with sodium pentobarbital (Nembutal®: 45 mg/kg in 5 ml/kg administered intra peritoneally) and body temperature was maintained with a heat lamp.
Rat pancreatic islets of Langerhans were isolated from the pancreas of 8 rats by collagenase P (Boehringer, Meylan, France) digestion. Islets were purified by sedimentation in Hanks balanced salt solution [NaCl (137 mM); KCl (5.36 mM); MgSO4, 7 H2O (0.81 mM); Na2HPO4, 12 H2O (0.34 mM); KH2PO4 (0.44 mM); CaCl2, 2 H2O (1.26 mM); NaHCO3 (4.17 mM)] followed by Ficoll gradient separation. Islets were then hand-picked under stereoscopic microscope and batches of 3 islets were incubated for 90 minutes at 37° C. with continuous shaking under a humidified condition (95% O2, 5% CO2) in 1 ml of Krebs/Hepes pH 7 solution [NaCl (115 mM), NaHCO3 (24 mM), KCl (5 mM), MgCl2 (1 mM), CaCl2, 2 H2O (1 mM), 0.2% of Bovine serum albumin (Fraction V, fatty acid free, Boehringer, Mannheim), 10 mM Hepes] containing the required glucose or compound concentration. Compounds were dissolved in DMSO at 2.10-2M stock solutions. They were then diluted at the required concentration in Krebs/Hepes buffer containing the required glucose concentration.
At the end of incubation, media was collected and insulin levels were measured using ELISA (EUROBIO, Courtaboeuf, France).
Islets were hand-picked and incubated in the presence of increasing concentrations of compounds in the presence of glucose at 2.8 or 8 mM. At the end of incubation, media was collected and insulin levels were measured using ELISA method. Results are expressed as % of glucose control (2.8 or 8 mM) and represent Means±SEM.

[2] = glucose 2.8 mM, compound 10−4 M

SMILES | melting point [°C] | Insulin secretion, % of ctrl at 10 μM of cpd (INS-1 cells) | Insulin secretion, % of ctrl at 50 μM of cpd (INS-1 cells) | other results
O=c1c(-c2ccccc2)nc2ccccc2n1CC(F)F [Example 3, 1-(2,2-difluoroethyl)-3-phenyl-quinoxalin-2(1H)-one] | 85 to 88 |  |  | 
CCn1c(=O)c(-c2ccc(Cl)cc2)nc2ccccc21 [Example 6, 3(4-chlorophenyl)-1-ethyl-quinoxalin-2(1H)-one] | 138 to 140 | 325 % of ctrl | 495 % of ctrl | Insulin secretion, % of glucose control [1, 2]: 94 ± 17 % of glucose control; Insulin secretion, % of glucose control ([1]; glucose 8 mM, compound 10−4 M): 413 ± 7 % of glucose control; Insulin secretion, % of glucose control ([1]; glucose 8 mM, compound 10−5 M): 226 ± 12 % of glucose control; Insulin secretion, % of glucose control ([1]; glucose 8 mM, compound 10−6 M): 124 ± 8 % of glucose control; Insulin secretion, % of glucose control ([1]; glucose 8 mM, compound 10−7 M): 126 ± 9 % of glucose control
CCn1c(=O)c(-c2ccc(F)cc2)nc2ccccc21 [Example 6-3, 1-ethyl-3-(4-fluorophenyl)quinoxalin-2(1H)-one] | 110 to 115 | 316 % of ctrl | 423 % of ctrl | Insulin secretion, % of glucose control [1, 2]: 114 ± 17 % of glucose control; Insulin secretion, % of glucose control ([1]; glucose 8 mM, compound 10−4 M): 440 ± 8 % of glucose control; Insulin secretion, % of glucose control ([1]; glucose 8 mM, compound 10−5 M): 168 ± 9 % of glucose control; Insulin secretion, % of glucose control ([1]; glucose 8 mM, compound 10−6 M): 135 ± 11 % of glucose control; Insulin secretion, % of glucose control ([1]; glucose 8 mM, compound 10−7 M): 133 ± 8 % of glucose control
O=c1c(-c2ccccc2)nc2ccccc2n1C1CC1 [Example 3-11, 1-cyclopropyl-3-phenylquinoxalin-2(1H)-one] | 102 to 105 | 371 % of ctrl | 468 % of ctrl | 
O=c1c(-c2ccc(Cl)cc2)nc2ccccc2n1C1CC1 [Example 3-3, 3-(4-chlorophenyl)-1-cyclopropyl-quinoxalin-2(1H)-one] | 102 to 105 |  |  | 
CCCc1nc2ccccc2n(C2CC2)c1=O [Example 3-32, 1-cyclopropyl-3-propylquinoxalin-2(1H)-one] | 72 to 75 |  |  | 
CCn1c(=O)c(-c2ccc(C(F)(F)F)cc2)nc2ccccc21 [Example 6-7, 1-ethyl-3-(4-trifluoromethylphenyl)quinoxalin-2(1H)-one] |  | 221 % of ctrl | 466 % of ctrl | 
O=c1c(-c2ccc(F)cc2)nc2ccccc2n1CC(F)F [Example 3-34, 1-(2,2-difluoroethyl)-3-(4-fluorophenyl)quinoxalin-2(1H)-one] | 151 to 154 |  |  | 
CCn1c(=O)c(-c2ccc(F)cc2)nc2cc(F)c(F)cc21 [Example 3-9, 1-ethyl-6,7-difluoro-3-(4-fluorophenyl)quinoxalin-2(1H)-one] | 116 to 118 |  |  | 
CCCCn1c(=O)c(CC)nc2ccccc21 [Example 3-29, 1-butyl-3-ethylquinoxalin-2(1H)-one] | 48 to 51 |  |  | 
CCc1nc2cc(F)c(F)cc2n(CC)c1=O [Example 3-24, 1,3-diethyl-6,7-difluoro-quinoxalin-2(1H)-one] | 117 to 119 |  |  | 
CCCCn1c(=O)c(-c2ccccc2)nc2ccccc21 [Example 3-16, 1-butyl-3-phenyl-quinoxalin-2(1H)-one] | 40 to 43 |  |  | 
CCn1c(=O)c(-c2ccc(F)cc2C)nc2ccccc21 [Example 6-5, 1-ethyl-3-(4-fluoro-2-methylphenyl)quinoxalin-2(1H)-one] |  | 287 % of ctrl | 325 % of ctrl | 
CCc1nc2ccccc2n(C2CC2)c1=O [Example 3-33, 1-cyclopropyl-3-ethylquinoxalin-2(1H)-one] | 77 to 80 |  |  | 
O=c1c(-c2ccc(Cl)cc2)nc2ccccc2n1CC(F)F [Example 3-2, 3-(4-chlorophenyl)-1-(2,2-difluoroethyl)quinoxalin-2(1H)-one] | 133 to 136 | 540 % of ctrl | 666 % of ctrl | 
CCn1c(=O)c(-c2ccc(C)cc2)nc2ccccc21 [Example 6-4, 1-ethyl-3-(4-methylphenyl)quinoxalin-2(1H)-one] |  | 305 % of ctrl | 391 % of ctrl | 
CCn1c(=O)c(-c2ccc(Cl)cc2)nc2cc(F)c(F)cc21 [Example 3-10, 1-ethyl-6,7-difluoro-3-(4-chlorophenyl)quinoxalin-2(1H)-one] | 135 to 137 |  |  | 
O=c1c(-c2ccc(F)cc2)nc2ccccc2n1C1CC1 [Example 3-14, 1-cyclopropyl-3-(4-fluorophenyl)quinoxalin-2(1H)-one] | 179 to 182 |  |  | 
